Among the data in article PMC9583304 (ACS Omega, 2022) are IC50 values, retold here.

The target of the assay is T1, porcine pancreatic lipase (Sus scrofa, UniProt P00591).
T1 sequence (P00591 1-450): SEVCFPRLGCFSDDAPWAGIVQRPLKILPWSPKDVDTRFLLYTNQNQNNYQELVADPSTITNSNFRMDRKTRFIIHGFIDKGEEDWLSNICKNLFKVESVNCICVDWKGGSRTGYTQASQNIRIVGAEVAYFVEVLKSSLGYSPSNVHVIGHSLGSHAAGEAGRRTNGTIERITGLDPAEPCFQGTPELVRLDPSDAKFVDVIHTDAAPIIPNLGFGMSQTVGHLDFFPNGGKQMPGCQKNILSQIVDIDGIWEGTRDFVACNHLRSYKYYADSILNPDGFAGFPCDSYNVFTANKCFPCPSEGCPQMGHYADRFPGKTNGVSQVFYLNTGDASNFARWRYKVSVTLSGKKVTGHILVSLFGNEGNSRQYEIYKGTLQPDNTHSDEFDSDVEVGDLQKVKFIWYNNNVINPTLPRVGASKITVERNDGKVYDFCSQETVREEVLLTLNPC
Description: Pancreatic lipase assay. The format is biochemical.

In turn, `O=C(O[C@@H]1C=C[C@@H](OC(=O)c2ccccc2)[C@](O)(CO)[C@H]1O)c1ccccc1` (relative stereo) [Compound 1, (1R*,4R*,5S*,6S*)-5,6-dihydroxy-5-(hydroxymethyl)cyclohex-2-ene-1,4-diyl dibenzoate] returned an IC50 of 11.2 µM.
